The subject of data set [1] is Sodium Channel. The data set can be described thus: Veratridine-induced Sodium Channel Activity Inhibitory Effect (suppression of veratridine-induced depolarization in synaptosomes, Rhodamine 6G). The format is biochemical, Wistar rats. Conditions: compound 0.1 μM; rat brain synaptosomes. The method, then: Veratridine-induced Sodium Channel Activity Inhibitory Effect
The membrane potential of the synaptosomes prepared from the brain membrane of Wistar rats (male, 10 to 12 weeks old) was measured by the method of Aiuchi et al. [T. Aiuchi et al: Biochimi. Biophys. Acta.

In data set [2] the test system is T-type Ca^2+ channel. The data set can be described thus: T-Type Calcium Channel Inhibitory Effect (whole-cell patch clamp, hippocampal CA1 pyramidal cells). The format is cell-based, Wistar rats. Conditions: suppression of peak current after one minute of application; rat hippocampal CA1 pyramidal cells; read-out: T-type Ca^Z+ channel inhibitory effect IC50. The method, then: T-Type Calcium Channel Inhibitory Effect
The hippocampal CA1 pyramidal cells were isolated from Wistar rats (male/female, 1 week old) in accordance with the method of Takahashi et al. [K. Takahashi et al.; J. Pharmacol. Exp. Ther., 256, 169 (1991)] and the T-type calcium current under conditions of a fixed membrane potential was measured using the whole-cell configuration of the pach clamp technique. The effects of the compounds were evaluated from the rate of suppression of the peak current after one minute of application using the concentration clamp method.

Data set [3] has as its target T1, Dopamine D2 receptor (Rattus norvegicus, UniProt P61169).
T1 construct: membrane fraction prepared from the striatum of Wister male rats; from tissue; host or cells: striatum of male Wistar rats (6 weeks old), membrane fraction
The data set can be described thus: Dopamine D2 Receptor Blocking Effect ([3H] raclopride binding, striatum membrane fraction). Conditions: 1.0 nM [3H] raclopride, 25° C., one hour. Details: species or system Wister male rats. On the procedure: Dopamine D2 Receptor Blocking Effect
57 μl of the membrane fraction prepared from the striatum of Wister male rats (6 weeks old) was incubated in a buffer at 25° C. for one hour along with the compound and 1.0 nM [^3 H) raclopride. A GF/C glass filter (0.1% polyethylene imine treatment) was used for separation of B/F, then the radioactivity was measured by a beta plate and the effect of the compound was evaluated.

The nature of data set [4]: acute toxicity, death rate up to 24 hours after intravenous injection. The conditions noted are these: mouse, in vivo, ddY mice (male, 6 weeks old), read-out: 50% lethal dosage LD50 of acute toxicity. The source says:
The compounds of the present invention are low in toxicity.

Data set [5] concerns dopamine D2 receptors. The conditions noted are these: due to its action of blocking dopamine D2 receptors; cited from earlier work.

Each structure is given as a SMILES string. Where only a bound is given, the exact number is not on record here.

For orientation: IC50 means the concentration that inhibits the measured activity by half. As usually defined, the LD50 is the dose expected to kill half of the subjects tested.

T1 sequence (P61169 whole entry): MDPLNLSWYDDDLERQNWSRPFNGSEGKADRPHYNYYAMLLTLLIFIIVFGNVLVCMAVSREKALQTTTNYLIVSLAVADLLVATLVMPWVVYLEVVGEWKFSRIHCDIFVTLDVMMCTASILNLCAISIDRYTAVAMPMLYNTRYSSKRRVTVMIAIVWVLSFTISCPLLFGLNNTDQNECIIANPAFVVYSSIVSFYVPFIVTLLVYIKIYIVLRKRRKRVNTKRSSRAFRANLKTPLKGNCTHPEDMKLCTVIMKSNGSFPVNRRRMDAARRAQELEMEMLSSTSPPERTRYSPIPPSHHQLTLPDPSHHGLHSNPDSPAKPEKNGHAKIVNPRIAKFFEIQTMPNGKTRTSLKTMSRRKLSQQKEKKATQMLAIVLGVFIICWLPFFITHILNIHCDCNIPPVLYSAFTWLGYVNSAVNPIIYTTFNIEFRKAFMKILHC

For the compound `O=C(CN1CCC(c2ccc(Oc3ccccc3)cc2)CC1)N[C@@H]1C[C@H]1c1ccccc1` (relative stereo) [Compound 56, N-(trans-2-phenyl-1-cyclopropyl)-4-(4-phenoxyphenyl)-1-piperidinacetamide], in data set [1], the “Anti-veratridine effect (inhibiting rate %)” value came out at 38.4%.
For `O=C(CN1CCC(c2ccc(Cc3ccc(F)cc3)cc2)CC1)N[C@@H]1C[C@H]1c1ccccc1` (relative stereo) [Compound 57, N-(trans-2-phenyl-1-cyclopropyl)-4-[4-(4-fluorophenyl)methylphenyl]-1-piperidinacetamide], the “Anti-veratridine effect (inhibiting rate %)” value in data set [1] was 32.8%. For the same compound, the IC50 in data set [2] was 1500 nM.
In the case of `O=C(CCCN1CC=C(c2ccc(Oc3ccccc3)cc2)CC1)NC1CCCOc2ccccc21` (stereo not drawn) [Compound 29, 5-[4-(4-(4-phenoxyphenyl)-1,2,3,6-tetrahydropyridine-1-yl)butyrylamino]-2,3,4,5-tetrahydro-1-benzoxepine], in data set [1], the “Anti-veratridine effect (inhibiting rate %)” value amounted to 27.9%.
Take `O=C(CCCN1CCC(c2ccc(Oc3ccccc3)cc2)CC1)NC1CCCOc2ccccc21` (stereo not drawn) [Compound 30, 5-[4-(4-(4-phenoxyphenyl)piperidin-1-yl)butyrylamino]-2,3,4,5-5 tetrahydro-1-benzoxepine]: in data set [1], the “Anti-veratridine effect (inhibiting rate %)” value is reported as 21.4%.
Consider `O=C(CCCN1CC=C(c2ccc(Oc3ccccc3)cc2)CC1)Nc1ccccc1Cc1ccccc1` [Compound 32, 2-benzyl-1-[4-(4-(4-phenoxyphenyl)-1,2,3,6-tetrahydropyridin-1-yl)butyrylamino]benzene], for which, in data set [1], the “Anti-veratridine effect (inhibiting rate %)” value was 35.7%. The compound also registered an IC50 in data set [3] greater than 1000 nM.
Take `O=C(CCCN1CCC(c2ccc(Oc3ccccc3)cc2)CC1)Nc1ccccc1Cc1ccccc1` [Compound 33, 2-benzyl-1-[4-(4-(4-phenoxyphenyl)piperidin-1-yl)butyrylamino]benzene]: in data set [1], the “Anti-veratridine effect (inhibiting rate %)” value turned out to be 37.5%.
Turning to `O=C(CCCN1CCN(c2ccc(Cc3ccc(F)cc3)cc2)CC1)Nc1ccccc1Cc1ccccc1` [Compound 34, 2-benzyl-1-[4-(4-(4-(4-fluorophenyl)methylphenyl)piperazin-1-yl)butyrylamino]benzene], in data set [1], the “Anti-veratridine effect (inhibiting rate %)” value is 50.2%. Also, the IC50 in data set [2] came out at 10000 nM; in data set [3] it was 7000 nM.
Take `O=C(CCCN1CCC(c2ccc(Cc3ccc(F)cc3)cc2)CC1)Nc1ccccc1Cc1ccccc1` [Compound 35, 2-benzyl-1-[4-(4-(4-(4-fluorophenyl)methylphenyl)piperidin-1-yl)butyrylamino]benzene]: in data set [1], the “Anti-veratridine effect (inhibiting rate %)” value is recorded as 40.6%.
As to `O=C(CCCCCN1CC=C(c2ccc(Oc3ccccc3)cc2)CC1)Nc1ccccc1Cc1ccccc1` [Compound 36, 2-benzyl-1-[6-(4-(4-phenoxyphenyl)-1,2,3,6-tetrahydropyridine-1-yl)hexanoylamino]benzene], the “Anti-veratridine effect (inhibiting rate %)” value in data set [1] is listed as 55.1%. The compound also displayed an IC50 in data set [3] greater than 1000 nM.
Turning to `O=C(CCCCCN1CCC(c2ccc(Oc3ccccc3)cc2)CC1)Nc1ccccc1Cc1ccccc1` [Compound 37, 2-benzyl-1-[6-(4-(4-phenoxyphenyl)piperidin-1-yl)hexanoylamino]benzene], in data set [1], the “Anti-veratridine effect (inhibiting rate %)” value stood at 62%. The same compound displayed an IC50 in data set [3] greater than 1000 nM.
Turning to `O=C(CCCCCN1CCN(c2ccc(Cc3ccc(F)cc3)cc2)CC1)Nc1ccccc1Cc1ccccc1` [Compound 38, 2-benzyl-1-[6-(4-(4-(4-fluorophenyl)methylphenyl)piperazin-1-yl)hexanoylamino]benzene], the “Anti-veratridine effect (inhibiting rate %)” value in data set [1] was found to be 56.6%.
On to `Cc1cccc(Cc2ccccc2)c1NC(=O)CN1CCC(c2ccc(Oc3ccccc3)cc2)CC1` [Compound 39, 2-benzyl-1-[2-(4-(4-phenoxyphenyl)piperidin-1-yl)acetylamino]-6-methylbenzene], for which the “Anti-veratridine effect (inhibiting rate %)” value in data set [1] turned out to be 16.6%.
On to `Cc1cccc(Cc2ccccc2)c1NC(=O)CCCN1CCC(c2ccc(Oc3ccccc3)cc2)CC1` [Compound 41, 2-benzyl-1-[4-(4-(4-phenoxyphenyl)piperidin-1-yl)butyrylamino]-6-methylbenzene], for which the “Anti-veratridine effect (inhibiting rate %)” value in data set [1] is reported as 30.4%.
As to `Cc1cccc(Cc2ccccc2)c1NC(=O)CCCN1CCN(c2ccc(Cc3ccc(F)cc3)cc2)CC1` [Compound 42, 2-benzyl-1-[4-(4-(4-(4-fluorophenyl)methylphenyl)piperazin-1-yl)butyrylamino]-6-methylbenzene], the “Anti-veratridine effect (inhibiting rate %)” value in data set [1] is 16.6%.
Consider `Cc1cccc(C)c1NC(=O)CCCN1CCC(c2ccc(Oc3ccccc3)cc2)CC1` [Compound 47, 2,6-dimethyl-1-[4-(4-(4-phenoxyphenyl)piperidin-1-yl)butyrylamino]benzene], for which the “Anti-veratridine effect (inhibiting rate %)” value in data set [1] is reported as 17.3%.
The same measure, in the same setting: the result for `Cc1cc(C)c(NC(=O)CCCN2CCC(c3ccc(Cc4ccc(F)cc4)cc3)CC2)c(C)c1` [Compound 49, 2,4,6-trimethyl-1-[4-(4-(4-(4-fluorophenyl)methylphenyl)piperidine-1-yl)butyrylamino]benzene] reads 17%.
On to `O=C(CCCN1CCN(c2ccc(Cc3ccc(F)cc3)cc2)CC1)N1CCCOc2ccccc21` [Compound 53, 5-[4-(4-(4-(4-fluorophenyl)methylphenyl)piperazin-1-yl)butyryl]-2,3,4,5-tetrahydro-1,5-benzoxazepine], for which the “Anti-veratridine effect (inhibiting rate %)” value in data set [1] is 33.8%. Moreover, the values for the IC50 in data set [2] and in data set [3] were 2800 nM and 1260 nM, respectively. Besides, the LD50 at 24 h in data set [4] was 46.5 mg/kg.
Regarding `O=C(CCCN1CCC(c2ccc(Cc3ccc(F)cc3)cc2)CC1)N1CCCOc2ccccc21` [Compound 54, 5-[4-(4-(4-(4-fluorophenyl)methylphenyl)piperidin-1-yl)butyryl]-2,3,4,5-tetrahydro-1,5-benzoxazepine], the “Anti-veratridine effect (inhibiting rate %)” value in data set [1] is listed as 29.4%.
In the case of `O=C(CN1CCC(c2ccc(Oc3ccccc3)cc2)CC1)Nc1ccccc1` [Compound 59, N-phenyl-4-(4-phenoxyphenyl)-1-piperidinacetamide], in data set [1], the “Anti-veratridine effect (inhibiting rate %)” value stood at 32.9%.
`O=C(CN1CCC(c2ccc(Cc3ccc(F)cc3)cc2)CC1)Nc1ccccc1` [Compound 60, N-phenyl-4-[4-(4-fluorophenyl)methylphenyl]-1-piperidinacetamide]: the “Anti-veratridine effect (inhibiting rate %)” value in data set [1] is reported as 33.9%.
On the same count and under the same terms, then `O=C(NCCN1CCC(c2ccc(Oc3ccccc3)cc2)CC1)c1ccccc1` [Compound 62, 1-(2-benzoylaminoethyl)-4-(4-phenoxyphenyl)piperidine], with 36%.
As to `O=C(NCCN1CCC(c2ccc(Oc3ccccc3)cc2)CC1)C1(c2ccccc2)CC1` [Compound 63, 1-[2-(1-phenyl-1-cyclopropylcarboxyamino)ethyl]-4-(4-phenoxyphenyl) piperidine], in data set [1], the “Anti-veratridine effect (inhibiting rate %)” value amounted to 36.2%.
The same measure, in the same setting: the result for `C=C(c1ccccc1)N(C)C(=O)CN1CCC(c2ccc(Oc3ccccc3)cc2)CC1` [Compound 64, N-methyl-N-(1-phenylvinyl)-4-(4-phenoxyphenyl)-1-piperidinacetamide] reads 31.5%.
Consider `Fc1ccc(C(c2ccc(F)cc2)N2CCN(C/C=C/c3ccccc3)CC2)cc1` [Flunarizine], for which the side effect entry in data set [5] is “onset of symptoms of Parkinson's disease”.

The values are drawn from patent publication US5723475A, “Arylpiperidine and arylpiperazine derivatives and medicament containing the same” (Suntory Limited, priority 1995, dated 1998).
